From US10023593B2, “ALK kinase inhibitor, and preparation method and uses thereof” (BEIJING PEARL BIOTECHNOLOGY LIMITED LIABILITY COMPANY, priority 2014, dated 2018)

System: NCI-H2228 cell line
Experiment: CellTiter-Glo cell proliferation inhibition on NCI-H2228 cell line
Format: cell-based
Details: Homo sapiens, NCI-H2228, 96 h, NCI-H2228 cells, 5000 cells/well, 4 days drug treatment
Procedure: 3. Cell Proliferation Inhibitory Activities of the Compounds of the Present Invention on NCI-H2228 Cell Line
? experimental method ? CellTiter-Glo® Luminescent Cell Viability Assay kit from Promega company was used to detect cell proliferation inhibitory activities of the compounds on NCI-H2228 cell line.
? instrument ? Envision 2104 plate reader from PerKinElmer company; Vi-Cell XR cell counter from Beckman Counter company; MCO-18AIC CO2 incubator from SANYO company.
? experiment material ? CellTiter-Glo® Luminescent Cell Viability Assay Kit (Promega company, catalog No. G7573); NCI-H2228 cell line (ATCC, catalog No. CRL-5935); RPMI-1640 medium (HyClone company, catalog No. SH30809.01B); fetal bovine serum (FBS) (Gibco company, catalog No. 10099-141); trypsin (Trypsin) (Gibco company, catalog No. 25200-072); PBS (HyClone company, catalog No. SH30256.01B); 96 wells cell culture plate (Corning company, catalog No. 3610); DMSO (AMRESCO company, catalog No. 0231); 96 wells plates (for diluting compounds) (CITOTEST company, catalog No. Ref36020096D);
? experimental condition ? NCI-H2228 cells in exponential growth phase were collected and treated with trypsin (Trypsin), and viable cells were counted by Vi-Cell XR cell counter. Cell suspension was adjusted to 62500 cells/ml with culture medium (RPMI-1640+10% FBS). 80 μl cell suspension was added into each well of 96 wells cell culture plate so that the final cell number of NCI-H2228 cells was 5000 cells/well. The cells were cultivated in an incubator with an atmosphere of 37° C., 5% CO2 and 95% humidity for 2 hours and then each well was added with 20 μl compounds in RPMI-1640 medium solution (the final concentration of DMSO was 0.5%). 4 days after drug treatment, each well was added with 50 μl CellTiter-Glo solution which was previously thawed and equilibrated to room temperature, and mixed for 2 minutes with microplate shaker. After placing at room temperature for 10 minutes, luminescence value was measured by PerkinElmer Envision 2104 plate reader and the data was analyzed.
? tested samples ? Compounds of the examples.
? data analysis ? Luminescence value of DMSO solvent control (Vvehicle control, which is the mean luminescence value from DMSO solvent control group)
Tested luminescence value (Vsample, which is the luminescence value from given concentration of compounds group) Inhibition rate (%)=(1−Vsample/Vvehicle control)×100
? data processing ? IC50 of compounds was calculated by using XLfit program in Excel.

Structure (SMILES)	IC50 [nM]
Cc1cc(Nc2ncc(Cl)c(Nc3cn(C)nc3S(=O)(=O)CC(C)C)n2)c(OC2CC2)cc1C1CCCN(C)C1 (stereo not shown) [Final product 61]	85
Cc1cc(Nc2ncc(Cl)c(Nc3cn(C)nc3S(=O)(=O)C(C)C)n2)c(OC(C)C)cc1C1CCCN(C)C1 (stereo not shown) [Final product 62]	122
Cc1cc(Nc2ncc(Cl)c(Nc3cn(C)nc3S(=O)(=O)C(C)C)n2)c(OC2CCC2)cc1C1CCN(C)CC1 [Final product 63]	31
COc1cc(C2CCN(C)CC2)c(C)cc1Nc1ncc(Cl)c(Nc2cn(C)nc2S(=O)(=O)C(C)C)n1 [Final product 64]	31
CCOc1cc(C2CCN(C)CC2)c(C)cc1Nc1ncc(Cl)c(Nc2cn(C)nc2S(=O)(=O)C(C)C)n1 [Final product 65]	38
CCCOc1cc(C2CCN(C)CC2)c(C)cc1Nc1ncc(Cl)c(Nc2cn(C)nc2S(=O)(=O)C(C)C)n1 [Final product 66]	59
CC(C)Oc1cc(C2CCN(C)CC2)c(C2CC2)cc1Nc1ncc(Cl)c(Nc2cn(C)nc2S(=O)(=O)C(C)C)n1 [Final product 68]	150
CCCc1cc(Nc2ncc(Cl)c(Nc3cn(C)nc3S(=O)(=O)C(C)C)n2)c(OC(C)C)cc1C1CCN(C)CC1 [Final product 69]	178
Cc1cc(Nc2ncc(F)c(Nc3cn(C)nc3S(=O)(=O)C(C)C)n2)c(OC(C)C)cc1C1CCN(C)CC1 [Final product 71]	199
Cc1cc(Nc2ncc(C)c(Nc3cn(C)nc3S(=O)(=O)C(C)C)n2)c(OC(C)C)cc1C1CCN(C)CC1 [Final product 73]	151
Cc1cc(Nc2ncc(Cl)c(Nc3cn(C)nc3S(=O)(=O)C(C)C)n2)c(OC2CC2)cc1C1CC2COCC(C1)N2C (stereo not shown) [Final product 74]	19
Cc1cc(Nc2ncc(Cl)c(Nc3cn(C)nc3S(=O)(=O)C(C)C)n2)c(OC2CC2)cc1CN1CCN(C)CC1 [Final product 75]	109
Cc1cc(Nc2ncc(Cl)c(Nc3cn(C)nc3S(=O)(=O)C(C)C)n2)c(OC2CC2)cc1OC1CN(C)C1 [Final product 76]	215
COCC1CC(c2cc(OC(C)C)c(Nc3ncc(Cl)c(Nc4cn(C)nc4S(=O)(=O)C(C)C)n3)cc2C)CCN1C (stereo not shown) [Final product 78]	128
COCC(C)(C)N1CCC(c2cc(OC3CC3)c(Nc3ncc(Cl)c(Nc4cn(C)nc4S(=O)(=O)C(C)C)n3)cc2C)CC1 [Final product 84]	46

Results, then the molecule that gave them:

IC50 [nM]	Structure (SMILES)
77	COCC(C)(C)N1CCC(c2cc(OC(C)C)c(Nc3ncc(Cl)c(Nc4cn(C)nc4S(=O)(=O)C(C)C)n3)cc2C)CC1 [Final product 85]
120	Cc1cc(Nc2ncc(Cl)c(Nc3cn(C)nc3S(=O)(=O)C3CCC3)n2)c(OC(C)C)cc1C1CCN(C)CC1 [Final product 86]
108	Cc1cc(Nc2ncc(Cl)c(Nc3cn(C)nc3S(=O)(=O)C(C)C)n2)c(OC2CC2)cc1C1CCN(C)CC1Cl (stereo not shown) [Final product 89]
75	Cc1cc(Nc2ncc(Cl)c(Nc3cn(C)nc3S(=O)(=O)CC(C)C)n2)c(OC2CC2)cc1C1CCN(C)CC1C (stereo not shown) [Final product 91]
67	Cc1cc(Nc2ncc(Cl)c(Nc3cn(C)nc3S(=O)(=O)CC(C)C)n2)c(OC2CC2)cc1C1CCN(C)C(C)C1 (stereo not shown) [Final product 93]
79	Cc1cc(Nc2ncc(Cl)c(Nc3cn(C)nc3S(=O)(=O)C(C)C)n2)c(OC(C)C)cc1C1CCN(C)C(C)C1 (stereo not shown) [Final product 94]
85	Cc1cc(Nc2ncc(Cl)c(Nc3cn(C)nc3S(=O)(=O)CC(C)C)n2)c(OC2CC2)cc1C1CC(C)N(C)C(C)C1 (stereo not shown) [Final product 96]
240	Cc1cc(Nc2ncc(Cl)c(Nc3cn(C)nc3S(=O)(=O)C(C)C)n2)c(OC(C)C)cc1C1CC(C)(C)N(C)C(C)(C)C1 [Final product 98]
58	Cc1cc(Nc2ncc(Cl)c(Nc3cn(C)nc3S(=O)(=O)C(C)C)n2)c(OC2CC2)cc1C1CCN(C)CC1(C)C (stereo not shown) [Final product 99]
26	Cc1cc(Nc2ncc(Cl)c(Nc3cn(C)nc3S(=O)(=O)C(C)C)n2)c(OC2CC2)cc1C1CCN(C)C(C(=O)N(C)C)C1 (stereo not shown) [Final product 101]
